Results taken from the NIST ThermoML archive (doi:10.1021/je049816w).
± gives the expanded uncertainty stated by the source.

Settings: Liquid, Ebulliometric method (Recirculating still)

CCOC(C)OCC [1,1-diethoxyethane]
Settings | vapor or sublimation pressure [kPa]
328.35 K | 19 ± 0.2
341.62 K | 32.1 ± 0.2
345.13 K | 36.7 ± 0.2
348.33 K | 41.1 ± 0.2
353.38 K | 49.2 ± 0.2
357.95 K | 57.9 ± 0.3
361.96 K | 66.1 ± 0.3
364.68 K | 72.3 ± 0.3
366.99 K | 77.9 ± 0.3
369.09 K | 83.1 ± 0.3
371.7 K | 90.1 ± 0.3
373.41 K | 94.8 ± 0.3
375.27 K | 100 ± 0.3
